# Results from patent US8343983B2, “Substituted pyrazolo-pyrimidine compounds” (ArQule, Inc., priority 2009, dated 2013).
# Like-named read-outs stand apart in the source and are kept apart here.
# Tested on: cancer cells
# Assay: MTS assay: inhibition of cell growth (formazan absorbance at 492 nm after 72 hours with test compound)
# Assay type: cell-based
# Conditions: inhibition class
# Description: Cells were maintained at 37° C., 5% CO2 in DMEM media supplemented with 1% fetal bovine serum, penicillin/streptomycin and fungizone (Invitrogen). Cells were seeded into 96-well tissue culture plates at 3000 per well and cultured at 37° C. for 18 hours. Test compounds were dissolved and diluted to 300× in DMSO then diluted 1:40 in DMEM. Cells were incubated with test compounds for 72 hours followed by incubation with tetrazolium compound (3-(4,5-dimethylthiazol-2-yl)-5-(3-carboxymethoxyphenyl)-2-(4-sulfophenyl)-2H-tetrazolium, inner salt; MTS) and the electron coupling reagent, phenazine methosulfate (PMS) for 4 hours. […] The ability of compounds to inhibit cell growth in this assay is correlated with the reduction of dehydrogenase enzyme activity found in metabolically active cells. The measurement of the absorbance of the formazan was assessed using an ENVISION™ (Perkin Elmer) microplate reader at 492 nm. The calculated IC50 value is the concentration of the test compound that causes a 50% decrease in the absorbance. […] A=>79% inhibition, B=>50 to 79% inhibition, C=<50% inhibition.
# [1] = Homo sapiens, DLD-1 cells, read-out: DLD-1, MTS 72 hours at 10 uM
# [2] = Homo sapiens, KATO III cells, read-out: KATO III, MTS 72 hours at 10 uM
# [3] = Homo sapiens, MDA-MB-231 cells, read-out: MDA-MB-231, MTS 72 hours at 10 uM
# [4] = Homo sapiens, NCI-H1299 cells, read-out: NCI-H1299, MTS 72 hours at 10 uM
# [5] = Homo sapiens, PC-3 cells, read-out: PC-3, MTS 72 hours at 10 uM
# [6] = PACA-2 cells, read-out: PACA-2, MTS 72 hours at 10 uM
Structure (SMILES),inhibition at 10 µM [1],inhibition at 10 µM [2],inhibition at 10 µM [3],inhibition at 10 µM [4],inhibition at 10 µM [5],inhibition at 10 µM [6]
"c1ccc(CN2CCc3n[nH]c4nc(N5CCN(c6ccccc6)CC5)nc2c34)cc1 [Compound 44, 6-benzyl-4-(4-phenylpiperazin-1-yl)-2,6,7,8-tetrahydro-1,2,3,5,6-pentaazaacenaphthylene]",< 50%,< 50%,< 50%,< 50%,< 50%,< 50%
"c1ccc(CC2CCN(c3nc4c5c(n[nH]c5n3)CCN4Cc3ccccc3)CC2)cc1 [Compound 45, 6-benzyl-4-(4-benzylpiperidin-1-yl)-2,6,7,8-tetrahydro-1,2,3,5,6-pentaazaacenaphthylene]",< 50%,< 50%,< 50%,< 50%,< 50%,< 50%
"Fc1ccc(CCNc2nc3c4c(n[nH]c4n2)CCN3Cc2ccccc2)cc1 [Compound 46, 6-benzyl-N-[2-(4-fluorophenyl)ethyl]-2,6,7,8-tetrahydro-1,2,3,5,6-pentaazaacenaphthylen-4-amine]",> 79%,> 79%,> 79%,50 to 79%,< 50%,> 79%
"COc1ccc(CNc2nc3c4c(n[nH]c4n2)CCN3Cc2ccccc2)cc1OC [Compound 47, 6-benzyl-N-(3,4-dimethoxybenzyl)-2,6,7,8-tetrahydro-1,2,3,5,6-pentaazaacenaphthylen-4-amine]",< 50%,< 50%,< 50%,< 50%,< 50%,< 50%
"COc1ccccc1CCNc1nc2c3c(n[nH]c3n1)CCN2Cc1ccccc1 [Compound 48, 6-benzyl-N-[2-(2-methoxyphenyl)ethyl]-2,6,7,8-tetrahydro-1,2,3,5,6-pentaazaacenaphthylen-4-amine]",< 50%,< 50%,50 to 79%,< 50%,< 50%,< 50%
"c1ccc(CN2CCc3n[nH]c4nc(NC5CCC5)nc2c34)cc1 [Compound 49, 6-benzyl-N-cyclobutyl-2,6,7,8-tetrahydro-1,2,3,5,6-pentaazaacenaphthylen-4-amine]",< 50%,< 50%,50 to 79%,< 50%,< 50%,< 50%
"COc1cc(CNc2nc3c4c(n[nH]c4n2)CCN3Cc2ccccc2)cc(OC)c1OC [Compound 50, 6-benzyl-N-(3,4,5-trimethoxybenzyl)-2,6,7,8-tetrahydro-1,2,3,5,6-pentaazaacenaphthylen-4-amine]",< 50%,< 50%,< 50%,< 50%,< 50%,< 50%
"O=C1CCCN1CCCNc1nc2c3c(n[nH]c3n1)CCN2Cc1ccccc1 [Compound 51, 1-{3-[(6-benzyl-2,6,7,8-tetrahydro-1,2,3,5,6-pentaazaacenaphthylen-4-yl)amino]propyl}pyrrolidin-2-one]",< 50%,< 50%,< 50%,< 50%,< 50%,< 50%
"CCC(C)Nc1nc2c3c(n[nH]c3n1)CCN2Cc1ccccc1 (stereo not drawn) [Compound 52, 6-benzyl-N-sec-butyl-2,6,7,8-tetrahydro-1,2,3,5,6-pentaazaacenaphthylen-4-amine]",> 79%,> 79%,> 79%,50 to 79%,< 50%,50 to 79%
"O=C(c1ccco1)N1CCN(c2nc3c4c(n[nH]c4n2)CCN3Cc2ccccc2)CC1 [Compound 53, 6-benzyl-4-[4-(2-furoyl)piperazin-1-yl]-2,6,7,8-tetrahydro-1,2,3,5,6-pentaazaacenaphthylene]",< 50%,< 50%,50 to 79%,< 50%,< 50%,< 50%
"c1ccc(CN2CCc3n[nH]c4nc(NCc5ccco5)nc2c34)cc1 [Compound 54, 6-benzyl-N-(2-furylmethyl)-2,6,7,8-tetrahydro-1,2,3,5,6-pentaazaacenaphthylen-4-amine]",< 50%,< 50%,< 50%,< 50%,< 50%,< 50%
"c1ccc(CN2CCc3n[nH]c4nc(NCC5CCCCC5)nc2c34)cc1 [Compound 55, 6-benzyl-N-(cyclohexylmethyl)-2,6,7,8-tetrahydro-1,2,3,5,6-pentaazaacenaphthylen-4-amine]",> 79%,> 79%,> 79%,50 to 79%,< 50%,< 50%
"c1ccc(CN2CCc3n[nH]c4nc(N5CCN(c6cnccn6)CC5)nc2c34)cc1 [Compound 56, 6-benzyl-4-(4-pyrazin-2-ylpiperazin-1-yl)-2,6,7,8-tetrahydro-1,2,3,5,6-pentaazaacenaphthylene]",< 50%,< 50%,< 50%,< 50%,< 50%,< 50%
"c1ccc(CN2CCc3n[nH]c4nc(NCCN5CCOCC5)nc2c34)cc1 [Compound 57, 6-benzyl-N-(2-morpholin-4-ylethyl)-2,6,7,8-tetrahydro-1,2,3,5,6-pentaazaacenaphthylen-4-amine]",> 79%,> 79%,> 79%,50 to 79%,> 79%,> 79%
"COc1cc2c(cc1OC)CN(c1nc3c4c(n[nH]c4n1)CCN3Cc1ccccc1)CC2 [Compound 58, 6-benzyl-4-(6,7-dimethoxy-3,4-dihydroisoquinolin-2(1H)-yl)-2,6,7,8-tetrahydro-1,2,3,5,6-pentaazaacenaphthylene]",50 to 79%,< 50%,50 to 79%,50 to 79%,> 79%,< 50%
"c1ccc(CN2CCc3n[nH]c4nc(NCC5COc6ccccc6O5)nc2c34)cc1 (stereo not drawn) [Compound 59, 6-benzyl-N-(2,3-dihydro-1,4-benzodioxin-2-ylmethyl)-2,6,7,8-tetrahydro-1,2,3,5,6-pentaazaacenaphthylen-4-amine]",< 50%,< 50%,< 50%,< 50%,< 50%,< 50%
"CC(C)Nc1nc2c3c(n[nH]c3n1)CCN2Cc1ccccc1 [Compound 60, 6-benzyl-N-isopropyl-2,6,7,8-tetrahydro-1,2,3,5,6-pentaazaacenaphthylen-4-amine]",< 50%,< 50%,< 50%,< 50%,< 50%,< 50%
